Values quoted from earlier work in patent US20130344141A1, “CONCENTRATION AND MENTAL PERFORMANCE AMPLIFYING FORMULATION” (priority 2009, published 2013).
Read-outs that look alike come from different tables or passages of the source.

Experiments:
[1] = system: fungal microorganisms that cause onychomycosis; settings: Trichophyton rubrum, T. mentagrophytes, Microsporum canis, Epidermophyton floccosum, E. stockdale
[2] = in vivo, po
[3] = majority metabolized peripherally
[4] = in vivo
[5] = taken orally
neuroblastoma cells = settings: in vitro
[6] = system: cerebral cortex N-methyl-D-aspartate (NMDA) receptor
neurons = settings: by blocking glutamate-induced neuronal calcium influx and cell death
[7] = in vivo; remark: listed apart in the source

## CC1CCC(C(C)C)C(O)C1 (stereo not shown) [menthol]
[1]
  activity against fungal microorganisms that cause onychomycosis: active

## Cn1c(=O)c2c(ncn2C)n(C)c1=O [caffeine, 1,3,7-trimethylxanthine]
[2]
  bioavailability: 100%

## N[C@@H](Cc1ccc(O)c(O)c1)C(=O)O [L-dopa, levodopa]
[3]
  share that reaches the brain: less than 1%

## CCOC(=O)C1=C[C@]2(CC)CCCN3CCc4c(n1c1ccccc41)[C@@H]32 [vinpocetine, Eburnamenine-14-carboxylic acid; Ethyl Ester]
[4]
  bioavailability: 7-57%
  effect of food on absorption: food significantly enhances absorption
Platelet aggregation
  drug-induced platelet aggregation: inhibits

## 1,2-diacyl-:ussn:ueglycero-3-phosphocholine [phosphatidylcholine]
[5]
  time to maximum serum concentrations: 8 to 12 h

## OC[C@H]1O[C@@H](OCCc2ccc(O)cc2)[C@H](O)[C@@H](O)[C@@H]1O [salidroside]
Neuroblastoma cells
  apoptosis of neuroblastoma cells exposed to hydrogen peroxide: decreases apoptosis

## CN1CCCC1c1cccnc1 (stereo not shown) [nicotine, Nicotine]
In the body
  elimination half-life: around two
In vivo
  blood-brain barrier passage: crosses the blood-brain barrier

## C/C=C1\[C@H]2C=C(C)C[C@]1(N)c1ccc(=O)[nH]c1C2 [huperzine A, Huperzine A]
acetylcholine; maximal value, frontal cortex
  acetylcholine elevation, frontal cortex: 125%
acetylcholine; maximal value, parietal cortex
  acetylcholine elevation, parietal cortex: 105%
acetylcholine; other brain regions
  acetylcholine elevation, other brain regions: 22-65%
[6]
  affinity as NMDA receptor antagonist: low affinity
neurons
  protection of neurons against toxic levels of glutamate: protects neurons
[7]
  blood-brain barrier passage: crosses the blood-brain barrier
